Test results reported in patent US4622337A, “2,2-dimethyl-3-(2-halovinyl)cyclopropane carboxlic acid ester pesticides” (priority 1972, dated 1986).

Key:
[1] = test system: houseflies (Musca domestica); assay: Relative toxicity to houseflies, topical drop on thorax; format: in vivo; details: 5-benzyl-3-furylmethyl (1R)-trans-chrysanthemate = 1000; inverse ratio of LD50; topical, female flies
Procedure: (§1) The toxicity of these new esters was tested by the procedure described in detail in our above mentioned application and the following results were obtained:
(§2) The insecticidal acitivity of the esters of the invention was assessed against houseflies and mustard beetles using the following techniques:
Female flies were treated on the thorax with a one microliter drop of insecticide dissolved in acetone. Two replicates of 15 flies were used at each dose rate and 6 dose rates were used per compound under test. After treatment, the flies were maintained at a temperature of 20° C.±1° and kill was assessed 24 and 48 hours after treatment. LD50 values were calculated in micrograms of insecticide per fly and relative toxicities were calculated from the inverse ratios of the LD50 values. (see Sawicki et al, Bulletin of the World Health Organization, 35,893, (1966) and Sawicki et al, Entomologia and Exp. Appl. 10, 253, (1967)).
(§3) Relative toxicities were calculated by comparison with 5-benzyl-3-furylmethyl(1R)-trans-chrysanthemate which is one of the most toxic chrysanthemate esters known to houseflies and mustard beetles, its toxicity being about 24 times that of allethrin to houseflies and 65 times that of allethrin to mustard beetles.

[2] = test system: mustard beetles (Phaedon cochleariae Fab); assay: Relative toxicity to mustard beetles, topical micro drop; format: in vivo; details: 5-benzyl-3-furylmethyl (1R)-trans-chrysanthemate = 1000; inverse ratio of LD50; topical, 48 hours
Procedure: as §1, §2
Acetone solutions of the test compound were applied ventrally to adult mustard beetles using a micro drop applicator. The treated insects were maintained for 48 hours after which time kill is assessed. Two replicates of 40 to 50 mustard beetles were used at each dose level and 3 to 4 dose levels were used for each compound. Again, LD50 values were calculated and relative toxicities were calculated for the inverse ratios of LD50 (see Elliott et al, J. Sci. Food Agric. 20, 561, (1969)).
as §3

Row | SMILES | Relative Toxicity, Houseflies [1] | Relative Toxicity, Mustard Beetles [2]
1 | CC1(C)C(C=C(Cl)Cl)C1C(=O)OCC#CCOc1ccccc1 (racemic) [Compound ME5, 4-Phenoxybut-2-ynyl(1RS)-cis,trans-3-(2,2-dichlorovinyl)-2,2-dimethylcyclopropane carboxylate] | 300 | 40
2 | CC1(C)C(C=C(Cl)Cl)C1C(=O)OC(C#N)c1coc(Cc2ccccc2)c1 (racemic) [Compound P21N, (αRS)-Cyano-5-benzyl-3-furylmethyl-(1RS)-cis-trans-3-(2,2-dichlorovinyl)-2,2-dimethyl cyclopropane carboxylate] | 100 | 2000
3 | CC1(C)C(C=C(Cl)Cl)C1C(=O)OC(C#N)c1cccc(Oc2ccccc2)c1 (racemic) [Compound P29F, (αRS)-cyano-3-phenoxybenzyl(1RS)-cis-trans-2,2-dimethyl-3-(2,2-dichlorovinyl)-cyclopropane carboxylate] | 1700 | –
4 | CC1(C)[C@H](C=C(Cl)Cl)[C@H]1C(=O)OCc1cccc(C(=O)c2ccccc2)c1 (racemic) [Compound P39B, 3-benzoylbenzyl(1RS)-trans-2,2-dimethyl-3-(2,2-dichlorovinyl)-cyclopropane carboxylate] | 10 | 590
5 | CC1(C)C(C=C(Cl)Cl)C1C(=O)OC1C=C(Cc2ccccc2)C(=O)C1 (racemic) [ME8, (±)-2-benzylcyclopentenon-4-yl(1RS)-cis,trans-3,(2,2-dichlorovinyl)-2,2-dimethylcyclopropane carboxylate] | 50 | 265
6 | CC1(C)[C@H](C=C(Cl)Cl)[C@H]1C(=O)OCc1cccc(Cc2ccccc2)c1 (relative stereo) [Compound P21I] | 170 | 420
7 | CC1(C)[C@H](C(=O)OCc2cccc(Cc3ccccc3)c2)[C@@H]1C=C(Cl)Cl (relative stereo) [Compound P21J] | 360 | 350
8 | CC1(C)[C@H](C(=O)OC(C#N)c2cccc(Oc3ccccc3)c2)[C@@H]1C=C(Cl)Cl (relative stereo) [Compound P29G, (αRS)-cyano-3-phenoxybenzyl(1RS)-cis-2,2-dimethyl-3-(2,2-dichlorovinyl)-cyclopropane carboxylate] | 3800 | 2400
9 | CC1(C)[C@H](C=C(Cl)Cl)[C@H]1C(=O)OC(C#N)c1cccc(Oc2ccccc2)c1 (relative stereo) [Compound P29H, (αRS)-cyano-3-phenoxybenzyl(1RS)-trans-2,2-dimethyl-3-(2,2-dichlorovinyl)-cyclopropane carboxylate] | 1800 | 750
10 | CC1(C)[C@H](C=C(Cl)Cl)[C@H]1C(=O)OC(C#N)c1cccc(C(=O)c2ccccc2)c1 (relative stereo) [Compound P39F, (αRS)-cyano-3-benzoylbenzyl(1RS)-trans-2,2-dimethyl-3-(2,2-dichlorovinyl)-cyclopropane carboxylate] | 80 | 600
11 | C=CC=CCC1=C(C)C(OC(=O)C2C(C=C(Cl)Cl)C2(C)C)CC1=O (single isomer, unassigned) [Compound P21M] | 19 | 370
12 | C=C/C=C\CC1=C(C)C(OC(=O)[C@@H]2[C@@H](/C=C\CC)C2(C)C)CC1=O (single isomer, unassigned) [Compound R] | 30 | 300
13 | CCCC=C[C@@H]1[C@@H](C(=O)OCc2coc(Cc3ccccc3)c2)C1(C)C [B] | 630 | 890
14 | C=CCC1=C(C)C(OC(=O)[C@@H]2[C@@H](C=C(C)C)C2(C)C)CC1=O (some centres unmarked) [Bioallethrin, reference compound] | 60 | 20
15 | CCCCC=C[C@@H]1[C@@H](C(=O)OCc2coc(Cc3ccccc3)c2)C1(C)C [Compound C] | 270 | 420
16 | CCC=C(C)C1C(C(=O)OCc2coc(Cc3ccccc3)c2)C1(C)C (centres unmarked) [Compound H] | < 7 | 10

Row | SMILES | Relative Toxicity, Houseflies [1] | Relative Toxicity, Mustard Beetles [2]
17 | CCCC=C(C)C1C(C(=O)OCc2coc(Cc3ccccc3)c2)C1(C)C (centres unmarked) [Compound I] | < 7 | < 10
18 | CC1(C)[C@H](C(=O)OCC#CCOc2ccccc2)[C@@H]1C=C(F)F [Compound ME3, 4-Phenoxybut-2-ynyl(1R)cis-3-(2,2-difluorovinyl)-2,2-dimethylcyclopropane carboxylate] | 150 | 30
19 | CC1(C)[C@H](C=C(F)F)[C@H]1C(=O)OCC#CCOc1ccccc1 [Compound ME4, 4-Phenoxybut-2-ynyl(1R)-trans-3-(2,2-difluorovinyl)-2,2-dimethylcyclopropane carboxylate] | 60 | 70
20 | CC1(C)[C@H](C(=O)OCC#CCOc2ccccc2)[C@@H]1C=C(Br)Br [Compound ME6, 4-Phenoxybut-2-ynyl(1R)cis-3-(2,2-dibromovinyl)-2,2-dimethylcyclopropane carboxylate] | 390 | 50
21 | COC(=O)C=C[C@@H]1[C@@H](C(=O)OCc2coc(Cc3ccccc3)c2)C1(C)C [Compound P19A] | 91 | 100
22 | CCOC(=O)C=C[C@@H]1[C@@H](C(=O)OCc2coc(Cc3ccccc3)c2)C1(C)C [Compound P19B] | 67 | 320
23 | CCCOC(=O)C=C[C@@H]1[C@@H](C(=O)OCc2coc(Cc3ccccc3)c2)C1(C)C [Compound P19C] | 24 | 40
24 | CCOC(=O)C(C)=C[C@@H]1[C@@H](C(=O)OCc2coc(Cc3ccccc3)c2)C1(C)C [Compound P19D] | 290 | 440
25 | CCCOC(=O)C(C)=C[C@@H]1[C@@H](C(=O)OCc2coc(Cc3ccccc3)c2)C1(C)C [Compound P19E] | 290 | 500
26 | CCC(=C[C@@H]1[C@@H](C(=O)OCc2coc(Cc3ccccc3)c2)C1(C)C)C(=O)OC [Compound P19F] | 130 | 360
27 | CCOC(=O)C(=C[C@@H]1[C@@H](C(=O)OCc2coc(Cc3ccccc3)c2)C1(C)C)CC [Compound P19G] | 300 | 500
28 | CCCOC(=O)C(=C[C@@H]1[C@@H](C(=O)OCc2coc(Cc3ccccc3)c2)C1(C)C)CC [Compound P19H] | 20 | 50
29 | CC1(C)[C@H](C=C(Cl)Cl)[C@H]1C(=O)OCc1coc(Cc2ccccc2)c1 [Compound P21A] | 2500 | 2700
30 | C=C(C)C1C(C(=O)OCc2coc(Cc3ccccc3)c2)C1(C)C (centres unmarked) [F] | 21 | –
31 | CC=C(C)C1C(C(=O)OCc2coc(Cc3ccccc3)c2)C1(C)C (centres unmarked) [G] | 18 | –
